Source: patent US8716528B2, “Aryloxy amine compounds and their use as sodium channel modulators” (Howard Florey Institute, priority 2007, dated 2014)
Several values for one entry are separate records, joined by “and”; a condition that tells them apart may be missing. Equal values may be shown once. Entries after “also recorded” stand apart in the source; their conditions may differ. Marks after values point to notes of the source that are not given here.

Assays:
[1] = biological target: Sodium Channel Binding Site 2 in Rat Brain Membranes; details: 3H-batrachotoxinin 5 nM, 37° C. 60 minutes, read-out: IC50 (inhibition of specific binding of 3H-batrachotoxinin)
[2] = tested on: Male Sprague-Dawley rats, L5 nerve ligated and cut; experiment: Rat L5 nerve cut model of neuropathic pain, Von Frey filament withdrawal threshold (allodynia); type: in vivo; details: for grams of force needed to withdraw left limb: left hind paw, nerve cut; for grams of force needed to withdraw left limb / grams of force needed to withdraw right limb: individual rats #17-#20; for effect on allodynia: left paw, 4 rats; for grams of force needed to withdraw right limb: right hind paw, nerve intact
Description: The following method is based on the method published by Chaplan et al, 1994. Male Sprague-Dawley rats from one litter were weaned when 19 days old and acclimatized for the next two days in the Animal House where the experiment was to be carried out. From days 21 to 25, rats were tested using a set of Von Frey monofilaments to test the mechanical withdrawal threshold of the hindpaws. The monofilaments were applied in increasing force until the rat withdrew the hind paw being tested. […] Rats were anaesthetized with a halothane/oxygen (5:95) gas mixture and a dorsal midline incision was made on the rat's lower back to expose the left lumbar region either side of the hip. Bone was clipped away to expose the L4 and L5 nerves distal to their emergence from the intervertebral foramina. The L5 nerve was then isolated using a glass hook, ligated and cut on the peripheral side of the ligation. The incision was then closed with suture threads and the anaesthetic gas discontinued. The next day rats underwent testing with the graded Von Frey filaments to the hind paws to determine if allodynia was present in the left paw as compared to the right hind paw. Testing was repeated on these rats until they were 28 days old. […] Rats were then tested with graded Von Frey filaments at 45 minutes and 90 minutes after injection in order to determine if allodynia had been blocked.

[3] = tested on: Male Hooded Wistar rats, spinal cord injury (SCI); experiment: Reversible spinal cord injury model: BBB open-field locomotor score; type: in vivo, rat; details: i.p. 3 h after injury and twice daily, 15 days; versus vehicle treated controls
Description: (§1) Male Hooded Wistar rats were anesthetized (2% isoflurane/98% oxygen), and laminectomy performed at spinal level T12. An inflatable balloon catheter was inserted rostral, underneath the vertebra, to T10 and inflated for 5 minutes, causing reversible paraplegia (Feldblum, et al., 2000). […] Rats had almost complete functional recovery by 15 d. Compound 1 (15 nmol/g and 60 nmol/g), mexiletine (60 nmol/g) and vehicle (5 ml/kg) were administered i.p, at 3 h after the injury and twice daily thereafter, until killed. Behavioural tests were conducted every 3 days. At 15 d post-injury, rats were anesthetized and transcardially perfused, to fix the spinal cords. Sections were cut and processed to examine the size of the cyst and modulatory effects of treatments or control on lesion formation.
BBB scale: Effects of Compound 1 and mexiletine treatment on the time course of functional recovery, following SCI, assessed with the BBB open-field locomotor score. […] Each rat acted as its own control, and results after SCI compared with pre-injury scores (0 h after SCI). Data are mean±SEM. ANOVA followed by Bonferroni post-test: [F(24,273)=10.57, P<0.0001], *P<0.05, **P<0.01, ***P<0.001 Compound 1 (60 nmol/g) versus the SCI+saline controls at the same time; †P<0.05 Compound 1 (15 nmol/g) or mexiletine (60 nmol/g) versus SCI+saline controls at the same time.

[4] = tested on: Male Hooded Wistar rats, spinal cord injury (SCI); experiment: Reversible spinal cord injury model: horizontal ladder test; type: in vivo, rat; details: versus SCI+saline controls at the same time
Description: as §1
Ladder test: In the horizontal ladder test, rats are placed onto a beam which is randomly missing rungs, this prevents rats from adapting and compensating for any deficits following SCI. […] The results are depicted in FIG. 4. […] Data is expressed as the percentage of foot misplacements made of the total number of steps taken, using a combined score for both hindlimbs. […] Each rat acted as its own control, and results compared with pre-injury scores (0 h after SCI). […]

[5] = tested on: Male Hooded Wistar rats, spinal cord injury (SCI); experiment: Reversible spinal cord injury model: ledged beam task; type: in vivo, rat; details: for use of the support ledge, ledged beam task: after SCI, versus saline-treated controls
Description: as §1
Ledged beam: Effects of Compound 1 and mexiletine, and SCI+saline controls on recovery of function following spinal cord compression injury as assessed by the number of steps using the support ledge on the ledged beam task. The results are depicted in FIG. 5. Sham-SCI rats walked the length of the ledged beam with approximately 10% of steps made on the supporting ledge. […] Data is expressed as ledge use/errors made as a percentage of total steps taken with both hindlimbs after SCI. Each rat acted as its own control, and results compared with pre-injury scores (0 h after SCI). ANOVA followed by Bonferroni post-test: [F(24,273)=5.12, P<0.0001], *P<0.05, **P<0.01, ***P<0.001 Compound 1 (60 nmol/g) versus the SCI+saline controls at the same time; †P<0.05 Compound 1 (15 nmol/g) versus SCI+saline controls at the same time. […] Data are mean±SEM. n=6-11 rats in each group.

[6] = tested on: Male Hooded Wistar rats, spinal cord injury (SCI); experiment: Reversible spinal cord injury model: volume of damage from H & E stained sections; type: in vivo, rat; details: equivalent mole dose, compared to SCI+saline, n=4
Description: as §1
(§2) Volume of damage: Effects of treatment were measured first from H & E stained sections. […] Data are mean±SEM of measurements from n=4 rats per treatment group. Secondly, the sparing of spinal cord tissue by Compound 1 and mexiletine treatment was assessed by more detailed histological staining techniques.

[7] = tested on: Male Hooded Wistar rats, spinal cord injury (SCI); experiment: Reversible spinal cord injury model: percentage of white and gray matter spared at the epicentre (H & E, Luxol Fast blue, cresyl violet); type: in vivo, rat
Description: as §1, §2

[8] = tested on: Male Hooded Wistar rats, spinal cord injury (SCI); experiment: Reversible spinal cord injury model: neuronal cell body counts by NeuN immunostaining; type: in vivo, rat; details: for loss of white matter and gray matter (rostro-caudal serial sections, neuronal cell body counts): after SCI, versus saline treatment
Description: as §1, §2

[9] = +0.5 mm from epicentre, 60 nmol/g
[10] = +1 mm from epicentre, 60 nmol/g
[11] = +1.5 mm from epicentre, 60 nmol/g
[12] = +2 mm from epicentre, 60 nmol/g
[13] = +2.5 mm from epicentre, 60 nmol/g
[14] = −0.5 mm from epicentre, 60 nmol/g
[15] = −1 mm from epicentre, 60 nmol/g
[16] = −1.5 mm from epicentre, 60 nmol/g
[17] = −2 mm from epicentre, 60 nmol/g
[18] = −2.5 mm from epicentre, 60 nmol/g

Cc1cccc(C)c1OCCCNCc1ccc(N2N=CC(C)C2=O)cc1 (stereo not shown) [Comparative A, reference compound]
IC50 [1]: 11000 nM

Cc1cccc(C)c1OCC(C)NCc1cc(C(C)(C)C)c(O)c(C(C)(C)C)c1 (stereo not shown) [Compound 1]
IC50 [1]: 134 nM
grams of force needed to withdraw left limb ([2]; 45 min post i.p. 70 nmol/g): 11.44 g and 17.8 g (3×)
grams of force needed to withdraw left limb ([2]; 90 min post i.p. 70 nmol/g): 3.7 g and 10.9 g and 17.8 g (2×)
effect on allodynia ([2]; 45 minutes after i.p. 70 nmol/g): allodynia had been completely eliminated in 3 of the rats
effect on allodynia ([2]; 90 minutes after i.p. 70 nmol/g): allodynia had still been eliminated in 2 rats
grams of force needed to withdraw right limb ([2]; 45 min post i.p. 70 nmol/g): 17.8 g
grams of force needed to withdraw right limb ([2]; 90 min post i.p. 70 nmol/g): 17.8 g
generalized anaesthesia (response of right hindpaw to filaments) ([2]; right hindpaw, 45 or 90 minutes after injection): did not cause a generalized anaesthesia
rate of functional recovery following SCI, BBB open-field locomotor score [3]: significantly increased the rate of recovery
number of hind-limb foot misplacements, horizontal ladder test [4]: decreased the number of hind-limb foot misplacements
use of the support ledge, ledged beam task [5]: significantly reduced
volume of damage (H & E stained sections) [6]: reduced damage compared to SCI+saline
GRAY MATTER spared, % MEAN ([7]; 15 nmol/g): 80* %
TOTAL TISSUE spared, % MEAN ([7]; 15 nmol/g): 74.3* %
WHITE MATTER spared, % MEAN ([7]; 15 nmol/g): 63.6* %
GRAY MATTER spared, % MEAN ([7]; 60 nmol/g): 88.9* %
TOTAL TISSUE spared, % MEAN ([7]; 60 nmol/g): 83.9* %
WHITE MATTER spared, % MEAN ([7]; 60 nmol/g): 81.1* %
No. of motor neurons Per sq mm, Mean ([8]; 0.0 mm (epicentre), 15 nmol/g): 9* Per sq mm
No. of motor neurons Per sq mm, Mean ([8]; 0.0 mm (epicentre), 60 nmol/g): 15* Per sq mm
No. of motor neurons Per sq mm, Mean ([8]; +0.5 mm from epicentre, 15 nmol/g): 10* Per sq mm
No. of motor neurons Per sq mm, Mean [8, 9]: 16* Per sq mm
No. of motor neurons Per sq mm, Mean ([8]; +1 mm from epicentre, 15 nmol/g): 14* Per sq mm
No. of motor neurons Per sq mm, Mean [8, 10]: 22* Per sq mm
No. of motor neurons Per sq mm, Mean ([8]; +1.5 mm from epicentre, 15 nmol/g): 25* Per sq mm
No. of motor neurons Per sq mm, Mean [8, 11]: 29* Per sq mm
No. of motor neurons Per sq mm, Mean ([8]; +2 mm from epicentre, 15 nmol/g): 28 Per sq mm
No. of motor neurons Per sq mm, Mean [8, 12]: 28 Per sq mm
No. of motor neurons Per sq mm, Mean ([8]; +2.5 mm from epicentre, 15 nmol/g): 29 Per sq mm
No. of motor neurons Per sq mm, Mean [8, 13]: 30 Per sq mm
loss of white matter and gray matter (rostro-caudal serial sections, neuronal cell body counts) [8]: reduced loss of both white matter and gray matter; also recorded: more effective than Mexiletine
No. of motor neurons Per sq mm, Mean ([8]; −0.5 mm from epicentre, 15 nmol/g): 11* Per sq mm
No. of motor neurons Per sq mm, Mean [8, 14]: 17* Per sq mm
No. of motor neurons Per sq mm, Mean ([8]; −1 mm from epicentre, 15 nmol/g): 18* Per sq mm
No. of motor neurons Per sq mm, Mean [8, 15]: 23* Per sq mm
No. of motor neurons Per sq mm, Mean ([8]; −1.5 mm from epicentre, 15 nmol/g): 26 Per sq mm
No. of motor neurons Per sq mm, Mean [8, 16]: 26 Per sq mm
No. of motor neurons Per sq mm, Mean ([8]; −2 mm from epicentre, 15 nmol/g): 29 Per sq mm
No. of motor neurons Per sq mm, Mean [8, 17]: 30 Per sq mm
No. of motor neurons Per sq mm, Mean ([8]; −2.5 mm from epicentre, 15 nmol/g): 27 Per sq mm
No. of motor neurons Per sq mm, Mean [8, 18]: 30 Per sq mm

CC(C)(C)c1cc(CNCCCOc2c(Cl)cccc2Cl)cc(C(C)(C)C)c1O [Compound 2]
IC50 [1]: 105 nM

COc1cccc(OC)c1OCCCNCc1cc(C(C)(C)C)c(O)c(C(C)(C)C)c1 [Compound 3]
IC50 [1]: 107 nM

CC(C)c1cccc(C(C)C)c1OCCCNCc1cc(C(C)(C)C)c(O)c(C(C)(C)C)c1 [Compound 4]
IC50 [1]: 90 nM

CC(C)c1cncc(C(C)C)c1OCCCNCc1cc(C(C)(C)C)c(O)c(C(C)(C)C)c1 [Compound 5]
IC50 [1]: 380 nM

CC(C)(C)c1cc(CNCCCOc2ccccc2)cc(C(C)(C)C)c1O [Compound 6]
IC50 [1]: 236 nM

CC(C)(C)c1cc(CNCCCOc2ccncc2)cc(C(C)(C)C)c1O [Compound 7]
IC50 [1]: 870 nM

Cc1cccc(C)c1OCCCNCc1cc(C(C)(C)C)c(O)c(C(C)(C)C)c1 [Compound 8]
IC50 [1]: 179 nM

Cc1cccc(C)c1OCC(C)N (stereo not shown) [Mexiletine, mexiletine, reference compound]
IC50 [1]: 11000 nM
rate of functional recovery following SCI, BBB open-field locomotor score [3]: significantly increased the rate of recovery
number of hind-limb foot misplacements, horizontal ladder test [4]: decreased the number of hind-limb foot misplacements
ledge use, statistical difference from SCI+saline ([5]; 60 nmol/g, Bonferroni post-test): no significant difference from SCI+saline at any time
use of the support ledge, ledged beam task [5]: significantly reduced
volume of damage (H & E stained sections) [6]: reduced damage compared to SCI+saline
GRAY MATTER spared, % MEAN ([7]; 60 nmol/g): 77.9* %
TOTAL TISSUE spared, % MEAN ([7]; 60 nmol/g): 70.5* %
WHITE MATTER spared, % MEAN ([7]; 60 nmol/g): 66.3* %
No. of motor neurons Per sq mm, Mean ([8]; 0.0 mm (epicentre), 60 nmol/g): 7* Per sq mm
No. of motor neurons Per sq mm, Mean [8, 9]: 10* Per sq mm
No. of motor neurons Per sq mm, Mean [8, 10]: 17* Per sq mm
No. of motor neurons Per sq mm, Mean [8, 11]: 24* Per sq mm
No. of motor neurons Per sq mm, Mean [8, 12]: 30 Per sq mm
No. of motor neurons Per sq mm, Mean [8, 13]: 27 Per sq mm
loss of white matter and gray matter (rostro-caudal serial sections, neuronal cell body counts) [8]: reduced loss of both white matter and gray matter
No. of motor neurons Per sq mm, Mean [8, 14]: 11* Per sq mm
No. of motor neurons Per sq mm, Mean [8, 15]: 17* Per sq mm
No. of motor neurons Per sq mm, Mean [8, 16]: 26 Per sq mm
No. of motor neurons Per sq mm, Mean [8, 17]: 33 Per sq mm
No. of motor neurons Per sq mm, Mean [8, 18]: 31 Per sq mm
